Tests used:
[1] = test system: Escherichia coli strains WP2 uvrA (tryptophan locus); assay: Ames bacterial reverse mutation assay, vapor-phase exposure by desiccator methodology; assay type: cell-based; conditions: E. coli WP2 uvrA
Method: (§1) Toxological testing was undertaken as part of the evaluation of HCFO-1233zd as a blowing agent. Ames testing was performed on a blend of trans- and cis- HCFO-1233zd and purified trans- HCFO-1233zd. The Ames test is a study designed to determine if a material can interact with DNA and cause point mutations, i.e. to determine if a material is mutagenic. Many carcinogenic materials are also mutagenic and this assay is often used as a quick screen for potential to cause an adverse effect on genetic material. It utilizes several strains of bacteria (Salmonella typhimurium and E. coli) and is often routinely included when developing the toxicology profile of a substance. If a substance substantially increases the mutation rate in the bacterial tester strains, the study result is defined as positive and the test substance is considered to be mutagenic.
(§2) The purpose of the study was to evaluate the mutagenic potential of the test article vapor by measuring it ability to induce reverse mutations at selected loci of several stains of Salmonella typhimurium and at the tryptophan locus of Escherichia coli strains WP2 uvrA in the presence and absence of Aroclor-induced rat liver S9. The test system was exposed to the test article via desiccator methodology. For each replicate plating, the mean and standard deviation of the number of revertants per plate were calculated and reported. Negative and positive controls were also run.
(§3) For the test article to be evaluated positive, it must cause a dose-related increase in the mean revertants per plate of at least one tester strain over a minimum of two increasing concentrations of test article. Data for tester strains TA1535 and TA1537 were judged positive if the increase in mean revertants at the peak of the dose response is equal to or judged greater than 3.0-times the mean vehicle control value. Data sets for tester strains TA98, TA100 and WP2 uvrA were judged positive if the increase in mean revertants at the peak of the dose response is equal to or greater than 2.0-times the mean vehicle control value.

[2] = test system: Salmonella typhimurium tester strains (TA1535, TA1537, TA98, TA100); assay: as above; assay type: cell-based; conditions: for mutagenicity / toxicity of the single isomer as concluded from the Ames tests of mixture and purified material: conclusion from comparing the 71.2/28.5 trans/cis mixture with the 96.5 wt % trans material
Method: as §1, §2, §3

SMILES | Ames test result (mutagenic response) ([1]; presence and absence of Aroclor-induced rat liver S9) | toxicity to tester strains ([1]; with and without S9) | Ames test result (mutagenic response) ([2]; Salmonella typhimurium tester strains, presence and absence of Aroclor-induced rat liver S9) | toxicity to tester strains ([2]; Salmonella typhimurium tester strains, with and without S9) | mutagenicity / toxicity of the single isomer as concluded from the Ames tests of mixture and purified material [2] | mutagenicity / toxicity of the single isomer as concluded from the Ames tests of mixture and purified material ([2]; listed as trans isomer)
FC(F)(F)C=CCl [purified material, 1-chloro-3,3,3-trifluoropropene] | did not cause a positive mutagenic response | No toxicity was observed | did not cause a positive mutagenic response | No toxicity was observed | – | –
FC(F)(F)/C=C/Cl [trans-isomer of 1-chloro-3,3,3-trifluoropropene, trans-1-chloro-3,3,3-trifluoropropene] | – | – | – | – | less toxic | significantly lower genotoxicity
FC(F)(F)/C=C\Cl [cis-isomer, cis-1-chloro-3,3,3-trifluoropropene] | – | – | – | – | active mutagenic agent | –
